Measurements from ChEMBL document CHEMBL1201862, “PubChem BioAssay data set” (2004).
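Grown in 96-well plates, cells were treated for 48 hours with each compound at five concentrations. Insufficient inhibition: endpoint recorded as highest concentration tested. GI50 marks 50% less growth.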 The source made the active and inactive calls. Rule as the data show it: active = GI50 up to about 1.1 µM and inactive = higher.

Assays:
Experiment in all cases: NCI anticancer screen, dose series, 48 h
[1] = system: ACHN
[2] = system: COLO 205
[3] = system: DU-145
[4] = system: EKVX
[5] = system: HT-29
[6] = system: MDA-N
[7] = system: Malme-3M
[8] = system: NCI-H226
[9] = system: PC-3
[10] = system: RPMI-8226
[11] = system: RXF 393
[12] = system: SF-539
[13] = system: SK-MEL-2
[14] = system: SK-MEL-5
[15] = system: SN12C
[16] = system: SR
[17] = system: T47D
[18] = system: TK-10
[19] = system: UACC-257
[20] = system: UACC-62

Compound	GI50 [1]	GI50 [2]	GI50 [3]	GI50 [4]	GI50 [5]	GI50 [6]	GI50 [7]	GI50 [8]	GI50 [9]	GI50 [10]	GI50 [11]	GI50 [12]	GI50 [13]	GI50 [14]	GI50 [15]	GI50 [16]	GI50 [17]	GI50 [18]	GI50 [19]	GI50 [20]
Nc1ccc(S(=O)(=O)Nc2ccc(Nc3c4ccccc4nc4ccccc34)cc2)cc1	< 0.0114 µM (active)	0.483 µM (active)	< 0.01 µM (active)	1.82 µM (inactive)	0.198 µM (active)	10.2 µM (inactive)	0.0675 µM (active)	0.0101 µM (active)	0.0555 µM (active)	0.0164 µM (active)	0.316 µM (active)	0.0166 µM (active)	0.769 µM (active)	0.0199 µM (active)	< 0.01 µM (active)	< 0.01 µM (active)	0.0637 µM (active)	0.566 µM (active)	1.87 µM (inactive)	0.0213 µM (active)
O=c1c2ccccc2n2cnc3ccc(NCCNCCO)c1c32	0.836 µM (active)	0.834 µM (active)	0.384 µM (active)	2.56 µM (inactive)	1.06 µM (active)	1.9 µM (inactive)	2.36 µM (inactive)	1.29 µM (inactive)	1.91 µM (inactive)	2.2 µM (inactive)	0.757 µM (active)	3.24 µM (inactive)	3.03 µM (inactive)	1.88 µM (inactive)	1.51 µM (inactive)	0.467 µM (active)	4.76 µM (inactive)	2.92 µM (inactive)	3.37 µM (inactive)	2.31 µM (inactive)
C=CC(C)(O)/C=C/C=C(\C)C(CC1OC1(C)C)OC(=O)/C(C)=C\C (stereo not drawn)	> 100 µM (inactive)	> 100 µM (inactive)	> 100 µM (inactive)	> 100 µM (inactive)	> 100 µM (inactive)	> 100 µM (inactive)	> 100 µM (inactive)	–	> 100 µM (inactive)	> 100 µM (inactive)	> 100 µM (inactive)	> 100 µM (inactive)	> 100 µM (inactive)	> 100 µM (inactive)	> 100 µM (inactive)	> 100 µM (inactive)	> 100 µM (inactive)	> 100 µM (inactive)	> 100 µM (inactive)	> 100 µM (inactive)
O=c1c2c3c(sc2nc2n1N=C(c1ccc(Cl)cc1)CS2)CCCC3	> 100 µM (inactive)	> 100 µM (inactive)	> 100 µM (inactive)	> 100 µM (inactive)	> 100 µM (inactive)	> 100 µM (inactive)	> 100 µM (inactive)	> 100 µM (inactive)	> 100 µM (inactive)	> 100 µM (inactive)	> 100 µM (inactive)	> 100 µM (inactive)	–	> 100 µM (inactive)	> 100 µM (inactive)	> 100 µM (inactive)	> 100 µM (inactive)	> 100 µM (inactive)	> 100 µM (inactive)	> 100 µM (inactive)
O=C(/C=C/c1ccccc1Br)c1ccccc1	1.8 µM (inactive)	14.5 µM (inactive)	8.07 µM (inactive)	13 µM (inactive)	3.03 µM (inactive)	6.71 µM (inactive)	–	17.1 µM (inactive)	11.4 µM (inactive)	3.01 µM (inactive)	7.82 µM (inactive)	4.1 µM (inactive)	15.7 µM (inactive)	9.31 µM (inactive)	9.84 µM (inactive)	2.18 µM (inactive)	4.52 µM (inactive)	2.17 µM (inactive)	9.68 µM (inactive)	11.4 µM (inactive)
CC(=O)n1[nH]c(=O)n(-c2ccc(Cl)cc2)c1=O	> 100 µM (inactive)	> 100 µM (inactive)	> 100 µM (inactive)	> 100 µM (inactive)	> 100 µM (inactive)	> 100 µM (inactive)	45.9 µM (inactive)	> 100 µM (inactive)	> 100 µM (inactive)	> 100 µM (inactive)	> 100 µM (inactive)	–	> 100 µM (inactive)	> 100 µM (inactive)	> 100 µM (inactive)	> 100 µM (inactive)	> 100 µM (inactive)	> 100 µM (inactive)	> 100 µM (inactive)	> 100 µM (inactive)
O=C1/C(=C/c2ccc(Cl)cc2)CSc2ccccc21	–	25.3 µM (inactive)	38.2 µM (inactive)	–	19.4 µM (inactive)	5.78 µM (inactive)	25.5 µM (inactive)	17.4 µM (inactive)	14.1 µM (inactive)	2.31 µM (inactive)	18.2 µM (inactive)	17.8 µM (inactive)	15.7 µM (inactive)	20.6 µM (inactive)	17.2 µM (inactive)	5 µM (inactive)	28 µM (inactive)	42.2 µM (inactive)	12.7 µM (inactive)	3.34 µM (inactive)
COc1ccccc1C1c2cc3c(cc2OC(N2CCCC2)C1C)OCO3 (stereo not drawn)	14.5 µM (inactive)	18 µM (inactive)	15.2 µM (inactive)	18.3 µM (inactive)	21.4 µM (inactive)	11.1 µM (inactive)	18.4 µM (inactive)	–	16 µM (inactive)	14.8 µM (inactive)	3.76 µM (inactive)	14.9 µM (inactive)	14.8 µM (inactive)	14.5 µM (inactive)	17.1 µM (inactive)	6.21 µM (inactive)	13.9 µM (inactive)	18.5 µM (inactive)	20.4 µM (inactive)	16.2 µM (inactive)
O=C(NC(O)(C(F)(F)F)C(F)(F)F)c1ccccc1	> 100 µM (inactive)	> 100 µM (inactive)	> 100 µM (inactive)	> 100 µM (inactive)	> 100 µM (inactive)	> 100 µM (inactive)	> 100 µM (inactive)	51.6 µM (inactive)	> 100 µM (inactive)	> 100 µM (inactive)	> 100 µM (inactive)	> 100 µM (inactive)	> 100 µM (inactive)	> 100 µM (inactive)	> 100 µM (inactive)	> 100 µM (inactive)	> 100 µM (inactive)	> 100 µM (inactive)	> 100 µM (inactive)	–
Cc1nnc2n(c1=O)CCN2C	> 100 µM (inactive)	> 100 µM (inactive)	> 100 µM (inactive)	> 100 µM (inactive)	> 100 µM (inactive)	> 100 µM (inactive)	> 100 µM (inactive)	> 100 µM (inactive)	> 100 µM (inactive)	> 100 µM (inactive)	> 100 µM (inactive)	> 100 µM (inactive)	> 100 µM (inactive)	> 100 µM (inactive)	> 100 µM (inactive)	> 100 µM (inactive)	> 100 µM (inactive)	> 100 µM (inactive)	–	> 100 µM (inactive)
Cc1ccc(NC(=O)c2cccc(OP(=O)(Nc3ccc(C)cc3)Nc3ccc(C)cc3)c2)cc1	4 µM (inactive)	2.32 µM (inactive)	53.3 µM (inactive)	7.94 µM (inactive)	3.5 µM (inactive)	3.78 µM (inactive)	4.83 µM (inactive)	8.04 µM (inactive)	7.78 µM (inactive)	–	1.91 µM (inactive)	23.3 µM (inactive)	15.3 µM (inactive)	13.2 µM (inactive)	16.3 µM (inactive)	3.4 µM (inactive)	5.53 µM (inactive)	7.52 µM (inactive)	11.9 µM (inactive)	20.3 µM (inactive)
N/C(=N\c1ccc(Cl)cc1)NS(=O)(=O)c1cc(Cl)c(Oc2ccc([N+](=O)[O-])cc2Cl)c(Cl)c1	16 µM (inactive)	16.1 µM (inactive)	15.7 µM (inactive)	16.9 µM (inactive)	20.4 µM (inactive)	18.2 µM (inactive)	> 100 µM (inactive)	17.1 µM (inactive)	16.2 µM (inactive)	–	15.2 µM (inactive)	16.6 µM (inactive)	20.5 µM (inactive)	16.6 µM (inactive)	17.5 µM (inactive)	18.9 µM (inactive)	14.8 µM (inactive)	18.2 µM (inactive)	16.6 µM (inactive)	12.2 µM (inactive)
O=C(N/N=C1\CCc2ccccc21)N/N=C1\CCc2ccccc21	> 100 µM (inactive)	> 100 µM (inactive)	> 100 µM (inactive)	–	> 100 µM (inactive)	11.2 µM (inactive)	> 100 µM (inactive)	> 100 µM (inactive)	> 100 µM (inactive)	> 100 µM (inactive)	> 100 µM (inactive)	> 100 µM (inactive)	> 100 µM (inactive)	> 100 µM (inactive)	> 100 µM (inactive)	0.055 µM (active)	> 100 µM (inactive)	> 100 µM (inactive)	> 100 µM (inactive)	> 100 µM (inactive)
NC1=NC(NCC2(CO)CCC2)=CC(OCC2(CO)CCC2)N1 (stereo not drawn)	–	> 100 µM (inactive)	> 100 µM (inactive)	> 100 µM (inactive)	> 100 µM (inactive)	> 100 µM (inactive)	> 100 µM (inactive)	> 100 µM (inactive)	> 100 µM (inactive)	> 100 µM (inactive)	> 100 µM (inactive)	–	> 100 µM (inactive)	79.3 µM (inactive)	> 100 µM (inactive)	82.8 µM (inactive)	62.2 µM (inactive)	–	> 100 µM (inactive)	> 100 µM (inactive)
COc1ccc(N2C(=O)c3cccnc3S2(=O)=O)cc1	> 100 µM (inactive)	> 100 µM (inactive)	> 100 µM (inactive)	> 100 µM (inactive)	> 100 µM (inactive)	> 100 µM (inactive)	> 100 µM (inactive)	> 100 µM (inactive)	> 100 µM (inactive)	> 100 µM (inactive)	> 100 µM (inactive)	> 100 µM (inactive)	> 100 µM (inactive)	–	> 100 µM (inactive)	> 100 µM (inactive)	> 100 µM (inactive)	–	> 100 µM (inactive)	> 100 µM (inactive)
